The text below walks through data of patent US12617756B2 (ABIVAX, priority 2019, dated 2026).

Molecules are shown by their SMILES.

The experiment deals with RSV A2. Put plainly: Screening for RSV inhibition using Viral ToxGlo assay (cytopathic effect inhibition in HEp-2 cells). The experiment is classed as cell-based, Respiratory Syncytial Virus (RSV). Conditions: human respiratory syncytial virus; RSV A2 in HEp-2 cells, MOI 0.5, 72h p.i., cytopathic effect inhibition relative to virus control, Viral ToxGlo luminescence. On the procedure:
Protocol for Screening Antiviral Compounds for RSV Inhibition and Cytotoxicity Using Viral ToxGlo Assay
HEp-2 cells were maintained in Eagle's minimum essential medium (EMEM) with Earle's BSS adjusted to contain 2 mM L-glutamine, 10% fetal bovine serum, 100 U/ml penicillin and 100 µg/ml streptomycin. For the purposes of the screening assay they were grown to 90% confluency, trypsinized and recovered. The trypsin was neutralised with cell culture media and cells were centrifuged at 150×g for 5 minutes before discarding the supernatant and resuspending cell pellet in assay media (EMEM with Earle's BSS adjusted to contain 2 mM L-glutamine, 2% fetal bovine serum and 100 U/ml penicillin and 100 µg/ml streptomycin). The cells were seeded into white clear-bottomed cell culture plates at a density of 1.5×10^4 cells/well in 50 μl and 4×10^3 cells/well in 25 μl for 96 well plates and 384 well plates respectively. For the media/background control column assay media only was added. Cell plates were placed in a humid chamber and incubated overnight at 37° C./5% CO2. After overnight incubation cells were checked for confluency and healthy appearance.
Test articles were made up at 10× test concentration in a maximum DMSO concentration of 10% (final assay concentration maximal 1% DMSO) and added to the cell plates in volumes of […] for 96 well plates and 5 μl for 384 well plates. For cell control and virus control wells the test article solvent only was added. Virus or assay media for cytotoxicity test wells and media/cell control wells was added immediately after test articles at an MOI of […] for 96 and 384 well plates respectively. Virus suspension was prepared by thawing RSV A2 frozen stocks and diluting to the required concentration of plaque forming units in assay media on ice.
Cell plates were further incubated inside a humid chamber for 72h p.i at 37° C./5% CO2. After the incubation period cells were observed under the microscope to check for characteristic cytopathic effect in virus control wells and healthy cells in the cell control wells. After plates were adjusted to room temperature 20/40 μl Viral ToxGlo (Promega) was added to each well of the 384/96 well cell plates. Plates were incubated at room temperature, protected from light on a plate rocker for 20 minutes before measuring the luminescence on a spectrophotometer (Biotek Synergy HTX).
As to `CC(C)NC(=O)c1cccc(Nc2ccc(C(=O)N=C3NCCN3)cc2C2CCOCC2)c1` [Compound 69, N-[(2Z)-imidazolidin-2-ylidene]-3-(oxan-4-yl)-4-({3-[(propan-2-yl)carbamoyl]phenyl}amino)benzamide], the 50% effective concentration (EC50) was 1130 nM.

Regarding `CC(C)NC(=O)c1ccccc1Nc1ccc(C(=O)N=C2NCCN2)cc1C1CC1` [Compound 70, 3-cyclopropyl-N-[(2E)-imidazolidin-2-ylidene]-4-({2-[(propan-2-yl)carbamoyl]phenyl}amino)benzamide], the concentration for a half-maximal effect (EC50) was determined as 1150 nM.

As for `CC(C)NC(=O)c1cccc(Nc2ccc(C(=O)N=C3N(C)CCN3C)cc2C(C)(C)C)c1` [Compound 71, 3-tert-butyl-N-[(2Z)-1,3-dimethylimidazolidin-2-ylidene]-4-({3-[(propan-2-yl)carbamoyl]phenyl}amino)benzamide], the EC50 was determined as 1170 nM.

For `CC(C)C(=O)Nc1cccc(Nc2ccc(C(=O)N=C3NCCN3)cc2Cl)c1` [Compound 72, 3-chloro-N-[(2E)-imidazolidin-2-ylidene]-4-{[3-(2-methylpropanamido)phenyl]amino}benzamide], the half-maximal effective concentration (EC50) was found to be 1230 nM.

In the case of `O=C(N=C1NCCN1)c1ccc(Nc2cc(F)cc(C(=O)N3CCOCC3)c2)c(C2CC2)c1` [Compound 73, 3-cyclopropyl-4-{[3-fluoro-5-(morpholine-4-carbonyl)phenyl]amino}-N-[(2Z)-imidazolidin-2-ylidene]benzamide], the half-maximal effective concentration (EC50) turned out to be 1290 nM.

Take `CC(C)(C)c1cc(C(=O)N=C2NCCN2)ccc1Nc1cc(C(=O)NCCC2CCOCC2)ccn1` [Compound 74, 2-[(2-tert-butyl-4-{[(2E)-imidazolidin-2-ylidene]carbamoyl}phenyl)amino]-N-[2-(oxan-4-yl)ethyl]pyridine-4-carboxamide]: the concentration for a half-maximal effect (EC50) was determined as 1310 nM.

As to `CC(C)NC(=O)c1cccc(Nc2c(F)cc(C(=O)N=C3NCCN3)cc2C2CC2)c1` [Compound 91, 3-cyclopropyl-5-fluoro-N-[(2Z)-imidazolidin-2-ylidene]-4-({3-[(propan-2-yl)carbamoyl]phenyl}amino)benzamide], the concentration for a half-maximal effect (EC50) stood at 2 nM.

In the case of `CC(C)NC(=O)c1cccc(Nc2ccc(C(=O)N=C3NCCN3)cc2C2CC2)c1-c1ccoc1` [Compound 92, 3-[(2-cyclopropyl-4-{[(2Z)-imidazolidin-2-ylidene]carbamoyl}phenyl)amino]-2-(furan-3-yl)-N-(propan-2-yl)benzamide], the EC50 came out at 277 nM.

For the compound `O=C(N=C1NCCN1)c1ccc(Nc2cccc(C(=O)NC3CCS(=O)(=O)CC3)c2Cl)c(C2CC2)c1` [Compound 94, 4-({2-chloro-3-[(1,1-dioxo-1λ^6-thian-4-yl)carbamoyl]phenyl}amino)-3-cyclopropyl-N-[(2E)-imidazolidin-2-ylidene]benzamide], the EC50 is 240 nM.

As for `O=C(N=C1NCCN1)c1ccc(Nc2cccc(C(=O)NC3CCOC3)c2)c(C2CCCC2)c1` (centres unmarked) [Compound 95, 3-cyclopentyl-N-[(2Z)-imidazolidin-2-ylidene]-4-({3-[(oxolan-3-yl)carbamoyl]phenyl}amino)benzamide], the EC50 came to 95.9 nM.

As for `O=C(N=C1NCCN1)c1ccc(Nc2cccc(C(=O)NC3CCOCC3)c2)c(C2CCCC2)c1` [Compound 96, 3-cyclopentyl-N-[(2Z)-imidazolidin-2-ylidene]-4-({3-[(oxan-4-yl)carbamoyl]phenyl}amino)benzamide], the half-maximal effective concentration (EC50) turned out to be 839 nM.

For the compound `O=C(N=C1NCCN1)c1ccc(Nc2cccc(C(=O)N3CCOCC3)c2Cl)c(C2CCCO2)c1` (centres unmarked) [Compound 97, 4-{[2-chloro-3-(morpholine-4-carbonyl)phenyl]amino}-N-[(2E)-imidazolidin-2-ylidene]-3-(oxolan-2-yl)benzamide], the concentration for a half-maximal effect (EC50) was 51 nM.

Consider `CC(C)NC(=O)c1cccc(Nc2ccc(C(=O)N=C3NCCN3)cc2C2CC2)c1F` [Compound 98, 3-cyclopropyl-4-({2-fluoro-3-[(propan-2-yl)carbamoyl]phenyl}amino)-N-[(2Z)-imidazolidin-2-ylidene]benzamide], for which the EC50 amounted to 228 nM.

In the case of `CC1(NC(=O)c2nccc(Nc3c(F)cc(C(=O)N=C4NCCN4)cc3C3CC3)c2F)CC1` [Compound 99, 4-[(2-cyclopropyl-6-fluoro-4-{[(2Z)-imidazolidin-2-ylidene]carbamoyl}phenyl)amino]-3-fluoro-N-(1-methylcyclopropyl)pyridine-2-carboxamide], the EC50 came out at 35.3 nM.

As to `CC(C)CCC(=O)Nc1ccccc1Oc1ccc(C(=O)N=C2NCCN2)cc1C1CC1` [Compound 100, 3-cyclopropyl-N-[(2E)-imidazolidin-2-ylidene]-4-[2-(4-methylpentanamido)phenoxy]benzamide], the EC50 was determined as 458 nM.

As to `CC1(NC(=O)c2cccc(Nc3ccc(C(=O)N=C4NCCN4)cc3S(C)(=O)=O)c2Cl)CC1` [Compound 102, 2-chloro-3-[(4-{[(2Z)-imidazolidin-2-ylidene]carbamoyl}-2-methanesulfonylphenyl)amino]-N-(1-methylcyclopropyl)benzamide], the EC50 came to 819 nM.

Turning to `O=C(N=C1NCCN1)c1ccc(Nc2cccc(C(=O)N3CCS(=O)(=O)CC3)c2Cl)c(C2CC2)c1` [Compound 103, 4-{[2-chloro-3-(1,1-dioxo-1)^6-thiomorpholine-4-carbonyl)phenyl]amino}-3-cyclopropyl-N-[(2E)-imidazolidin-2-ylidene]benzamide], the 50% effective concentration (EC50) was found to be 19.4 nM.

For the compound `CC(C)C1COCCN1C(=O)c1cccc(Nc2ccc(C(=O)N=C3NCCN3)cc2C2CC2)c1Cl` (centres unmarked) [Compound 104, 4-({2-chloro-3-[3-(propan-2-yl)morpholine-4-carbonyl]phenyl}amino)-3-cyclopropyl-N-[(2Z)-imidazolidin-2-ylidene]benzamide], the EC50 worked out at 12.4 nM.

As to `CC(C)C1CN(C(=O)c2cccc(Nc3ccc(C(=O)N=C4NCCN4)cc3C3CC3)c2Cl)CCO1` (centres unmarked) [Compound 105, 4-({2-chloro-3-[2-(propan-2-yl)morpholine-4-carbonyl]phenyl}amino)-3-cyclopropyl-N-[(2Z)-imidazolidin-2-ylidene]benzamide], the EC50 was 3.2 nM.

With `Cc1cc(C(=O)N=C2NCCN2)cc(C2CC2)c1Nc1cccc(C(=O)NC(C)C)c1` [Compound 106, 3-cyclopropyl-N-[(2Z)-imidazolidin-2-ylidene]-5-methyl-4-({3-[(propan-2-yl)carbamoyl]phenyl}amino)benzamide], the concentration for a half-maximal effect (EC50) came out at 5.7 nM.

On to `CC(C)CC1(NC(=O)c2cccc(Nc3ccc(C(=O)N=C4NCCN4)cc3C3CC3)c2)CC1` [Compound 107, 3-cyclopropyl-N-[(2Z)-imidazolidin-2-ylidene]-4-[(3-{[1-(2-methylpropyl)cyclopropyl]carbamoyl}phenyl)amino]benzamide], for which the EC50 is 14 nM.

As for `O=C(N=C1NCCN1)c1ccc(Nc2cccc(C(=O)NCC3CCCO3)c2Cl)c(C2CC2)c1` (centres unmarked) [Compound 109, 4-[(2-chloro-3-{[(oxolan-2-yl)methyl]carbamoyl}phenyl)amino]-3-cyclopropyl-N-[(2E)-imidazolidin-2-ylidene]benzamide], the EC50 was 45 nM.

With `CC(=O)N1CCN/C1=N\C(=O)c1ccc(Nc2cccc(NC(=O)C(C)C)c2)c(C2CC2)c1` [Compound 110, N-[(2E)-1-acetylimidazolidin-2-ylidene]-3-cyclopropyl-4-{[3-(2-methylpropanamido)phenyl]amino}benzamide], the concentration for a half-maximal effect (EC50) was found to be 324 nM.
